Data set [1] has as its system Mus musculus. The data set is described as follows: In vivo inhibition of XOD in po dosed adenine and potassium oxonate-induced hyperuricemia Kunming mouse model assessed as reduction in XOD activity in liver administered via gavage once daily for 2 weeks. The class given is functional, organism-based. To be noted: dose 5-20 mg/kg, DDE = dose-dependent effect.
Data set [2] deals with Mus musculus. The data set is described as follows: Renal protective activity against adenine and potassium oxonate-induced hyperuricemia Kunming mouse model assessed as reduction in hyperuricemia-induced renal fibrosis by measuring reduction in collagen-1 expression in kidney at 5 to 20 mg/kg, po administered via gavage for 2 weeks by immunoblot analysis. It counts as functional, organism-based. To be noted: dose 5-20 mg/kg. For orientation: Immunoblotting shows a protein as a band on a membrane.

Data set [3] deals with Mus musculus. Description: Anti-hyperuricemic activity against adenine and potassium oxonate-induced hyperuricemia Kunming mouse model assessed as reduction in creatinine level at 10 mg/kg, po administered via gavage once daily for 4 weeks (reference value: 76.87 +/- 0.67 uM). The class given is functional.
The subject of data set [4] is Mus musculus. Description: Nephroprotective activity against adenine and potassium oxonate-induced hyperuricemia Kunming mouse model assessed as reduction in renal tubule dilation at 20 mg/kg, po administered via gavage and measured after 21 days by hematoxylin-eosin and Masson trichrome staining based optical microscopic analysis. The class given is functional, organism-based. To be noted: time 21.0 day.

Data set [5] deals with Mus musculus. The data set is described as follows: Renal protective activity against adenine and potassium oxonate-induced hyperuricemia Kunming mouse model assessed as reduction in TNF-alpha expression in kidney at 5 to 20 mg/kg, po administered via gavage for 2 weeks by ELISA. To be noted: dose 5-20 mg/kg. The class given is functional, organism-based. On the technique in general: An ELISA detects its analyte on a solid surface through an enzyme-linked reagent.

Data set [6] has as its system Mus musculus. The data set is described as follows: Nephroprotective activity against adenine and potassium oxonate-induced hyperuricemia Kunming mouse model assessed as reduction in connective tissue hyperplasia at 20 mg/kg, po administered via gavage and measured after 21 days by hematoxylin-eosin and Masson trichrome staining based optical microscopic analysis. It counts as functional, organism-based. To be noted: time 21.0 day.

Data set [7] deals with Mus musculus. Description: Nephroprotective activity against adenine and potassium oxonate-induced hyperuricemia Kunming mouse model assessed as reduction in tubular-interstitial lesion development at 20 mg/kg, po administered via gavage and measured after 21 days by hematoxylin-eosin and Masson trichrome staining based optical microscopic analysis. The class given is functional, organism-based. To be noted: time 21.0 day.

In data set [8] the test system is Mus musculus. Description: Nephroprotective activity against adenine and potassium oxonate-induced hyperuricemia Kunming mouse model assessed as appearance of clear tubular structures at 20 mg/kg, po administered via gavage and measured after 21 days by hematoxylin-eosin and Masson trichrome staining based optical microscopic analysis. It counts as functional, organism-based. To be noted: time 21.0 day.

Data set [9] deals with Mus musculus. Description: Renal protective activity against adenine and potassium oxonate-induced hyperuricemia Kunming mouse model assessed as reduction in renal inflammation by measuring reduction in IkappaBalpha expression at 5 to 20 mg/kg, po administered via gavage for 2 weeks by Western blot analysis. The class given is functional, organism-based. The note with it: dose 5-20 mg/kg.

For data set [10], the target named is Xanthine dehydrogenase/oxidase (Bos taurus, UniProt P80457). Description: Mixed type inhibition of bovine XOD assessed as decrease in Vmax with increase in Km at upto 20 uM using varying levels of xanthine as substrate by Lineweaver-Burk plot analysis. To be noted: cattle.
Data set [11] concerns Mus musculus. The data set is described as follows: Renal protective activity against adenine and potassium oxonate-induced hyperuricemia Kunming mouse model assessed as reduction in renal inflammation by measuring reduction in NF-kappaB expression at 5 to 20 mg/kg, po administered via gavage for 2 weeks by Western blot analysis. The class given is functional, organism-based. The note with it: dose 5-20 mg/kg.

Another data set concerns HK-2. Description: Cytoprotective activity in human HK-2 cells assessed as reduction in uric acid-induced cell remodeling by inverted light microscopic analysis. It counts as functional, cell-based. To be noted: dose 12.5-100 µM.

Results on one molecule are retold here after ChEMBL document CHEMBL5120838, “Synthesis and biological evaluation of geniposide derivatives as inhibitors of hyperuricemia, inflammatory and fibrosis” (Eur J Med Chem, 2022).

Activity calls are given as the source filed them. The rule behind the calls is not given here.

Sequence of Xanthine dehydrogenase/oxidase (P80457 whole entry): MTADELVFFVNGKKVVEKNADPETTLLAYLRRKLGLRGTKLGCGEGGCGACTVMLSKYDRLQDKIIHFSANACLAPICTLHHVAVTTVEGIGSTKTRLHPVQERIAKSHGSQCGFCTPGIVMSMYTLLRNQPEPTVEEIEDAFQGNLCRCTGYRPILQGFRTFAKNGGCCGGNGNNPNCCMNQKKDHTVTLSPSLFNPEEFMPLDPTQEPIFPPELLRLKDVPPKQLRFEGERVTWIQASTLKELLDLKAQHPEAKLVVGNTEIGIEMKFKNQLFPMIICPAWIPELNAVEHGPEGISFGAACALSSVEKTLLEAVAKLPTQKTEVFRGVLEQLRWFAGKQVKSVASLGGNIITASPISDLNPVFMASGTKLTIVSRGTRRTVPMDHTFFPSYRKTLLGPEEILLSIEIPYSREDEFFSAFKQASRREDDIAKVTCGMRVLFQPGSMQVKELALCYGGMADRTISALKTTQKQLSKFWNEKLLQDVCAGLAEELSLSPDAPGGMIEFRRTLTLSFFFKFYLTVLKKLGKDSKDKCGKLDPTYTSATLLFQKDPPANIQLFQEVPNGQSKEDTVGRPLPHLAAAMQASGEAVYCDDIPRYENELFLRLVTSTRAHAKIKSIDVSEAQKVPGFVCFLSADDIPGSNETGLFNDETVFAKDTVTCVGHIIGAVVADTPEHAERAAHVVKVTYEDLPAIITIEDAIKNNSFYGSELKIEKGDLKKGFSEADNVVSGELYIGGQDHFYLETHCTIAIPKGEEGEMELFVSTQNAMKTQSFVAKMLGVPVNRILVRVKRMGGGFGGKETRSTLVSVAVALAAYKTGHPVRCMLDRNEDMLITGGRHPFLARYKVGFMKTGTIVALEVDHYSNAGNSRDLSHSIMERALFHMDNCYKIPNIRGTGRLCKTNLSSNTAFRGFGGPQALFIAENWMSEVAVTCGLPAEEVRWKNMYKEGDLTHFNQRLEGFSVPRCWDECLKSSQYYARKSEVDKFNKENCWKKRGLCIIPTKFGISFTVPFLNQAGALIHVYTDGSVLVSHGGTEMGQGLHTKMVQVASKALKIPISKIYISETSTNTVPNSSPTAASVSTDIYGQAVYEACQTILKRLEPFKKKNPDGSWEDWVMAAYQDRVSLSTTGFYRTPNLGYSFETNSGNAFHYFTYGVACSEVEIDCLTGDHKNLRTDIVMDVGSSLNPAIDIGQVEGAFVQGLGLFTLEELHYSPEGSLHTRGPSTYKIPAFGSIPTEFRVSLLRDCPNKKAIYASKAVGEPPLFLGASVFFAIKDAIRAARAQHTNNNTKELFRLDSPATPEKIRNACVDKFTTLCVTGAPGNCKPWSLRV

On to `CC(=O)OCC1=CC[C@@H]2C(C(=O)Nc3ncco3)=CO[C@@H](O[C@@H]3O[C@H](COC(C)=O)[C@@H](OC(C)=O)[C@H](OC(C)=O)[C@H]3OC(C)=O)[C@H]12`, for which, in the data set with Mus musculus [1], the inhibition entry was “Dde”. Moreover, the outcome with Mus musculus [2], in the data set with Mus musculus [4], with Mus musculus [5], in the data set with Mus musculus [6], with Mus musculus [7] and in the data set on Mus musculus [8] was Active. The result with Mus musculus [9], with Mus musculus [11] and in the data set with HK-2 was Active. In addition, the Activity in the data set on Mus musculus [3] was 47.17 µM. For the same molecule, the “inhibition (INH)” value in [10] was “Active”.
